# Source: PubChem BioAssay AID1963843 (Molecular Pharmacology Branch, DTP, NCI, 2024)
# Test system: 616215-338-R-J1-PDC complex spheroid viability
# Assay: Anticancer human tumor 616215-338-R-J1-PDC patient-derived colon adenocarcinoma cell line growth inhibition [POLQ]
# Details: for IC50: curve of first compound; for viability, T/C: stronger effect = lower value
# Summary of the method: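 PDC + HUVEC + MSC complex spheroids; POLQ inhibitors ± partner drugs; top conc. at/near clinical Cmax, else 10 microM (SN-38 1 microM), half-log dilutions; 37 degrees C, 5% CO2.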
# 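Also: spheroids exposed to compounds for one week before readout.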
# 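For viability, T/C in this document: percent viability relative to DMSO vehicle wells taken as 100%.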
smiles,measurement,setting,value
CC(=O)O[C@H]1C(=O)[C@@]2(C)[C@H]([C@H](OC(=O)c3ccccc3)[C@]3(O)C[C@H](OC(=O)[C@H](O)[C@@H](NC(=O)c4ccccc4)c4ccccc4)C(C)=C1C3(C)C)[C@]1(OC(C)=O)CO[C@@H]1C[C@@H]2O + COC1C(OC(N)=O)C(O)C(Oc2ccc3c(O)c(NC(=O)c4ccc(O)c(CC=C(C)C)c4)c(=O)oc3c2C)OC1(C)C,IC50,second compound 0.0316 µM,0.0418 µM
same,IC50,second compound 0.1 µM,0.0454 µM
same,IC50,second compound 0.316 µM,0.0252 µM
same,IC50,second compound 1 µM,0.0269 µM
same,IC50,second compound 3.16 µM,0.0293 µM
same,IC50,second compound 10 µM,0.0298 µM
same,"viability, T/C","second compound 0.0316 µM, first compound 0.00949 µM",76.1%
same,"viability, T/C","second compound 0.0316 µM, first compound 0.03 µM",52.6%
same,"viability, T/C","second compound 0.0316 µM, first compound 0.0949 µM",41%
same,"viability, T/C","second compound 0.0316 µM, first compound 0.3 µM",38.6%
same,"viability, T/C","second compound 0.0316 µM, first compound 0.949 µM",34.3%
same,"viability, T/C","second compound 0.0316 µM, first compound 3 µM",30.5%
same,"viability, T/C","second compound 0.1 µM, first compound 0.00949 µM",89.7%
same,"viability, T/C","second compound 0.1 µM, first compound 0.03 µM",54%
same,"viability, T/C","second compound 0.1 µM, first compound 0.0949 µM",42.5%
same,"viability, T/C","second compound 0.1 µM, first compound 0.3 µM",35.3%
same,"viability, T/C","second compound 0.1 µM, first compound 0.949 µM",37.1%
same,"viability, T/C","second compound 0.1 µM, first compound 3 µM",32.6%
same,"viability, T/C","second compound 0.316 µM, first compound 0.00949 µM",97.3%
same,"viability, T/C","second compound 0.316 µM, first compound 0.03 µM",41.5%
same,"viability, T/C","second compound 0.316 µM, first compound 0.0949 µM",40.4%
same,"viability, T/C","second compound 0.316 µM, first compound 0.3 µM",38.3%
same,"viability, T/C","second compound 0.316 µM, first compound 0.949 µM",38.5%
same,"viability, T/C","second compound 0.316 µM, first compound 3 µM",31.8%
same,"viability, T/C","second compound 1 µM, first compound 0.00949 µM",96.5%
same,"viability, T/C","second compound 1 µM, first compound 0.03 µM",44.1%
same,"viability, T/C","second compound 1 µM, first compound 0.0949 µM",37.1%
same,"viability, T/C","second compound 1 µM, first compound 0.3 µM",33.4%
same,"viability, T/C","second compound 1 µM, first compound 0.949 µM",31.4%
same,"viability, T/C","second compound 1 µM, first compound 3 µM",31.7%
same,"viability, T/C","second compound 3.16 µM, first compound 0.00949 µM",84.2%
same,"viability, T/C","second compound 3.16 µM, first compound 0.03 µM",48.2%
same,"viability, T/C","second compound 3.16 µM, first compound 0.0949 µM",40.8%
same,"viability, T/C","second compound 3.16 µM, first compound 0.3 µM",31.4%
same,"viability, T/C","second compound 3.16 µM, first compound 0.949 µM",36.1%
same,"viability, T/C","second compound 3.16 µM, first compound 3 µM",32.2%
same,"viability, T/C","second compound 10 µM, first compound 0.00949 µM",87.6%
same,"viability, T/C","second compound 10 µM, first compound 0.03 µM",48.3%
same,"viability, T/C","second compound 10 µM, first compound 0.0949 µM",42.2%
same,"viability, T/C","second compound 10 µM, first compound 0.3 µM",34.2%
same,"viability, T/C","second compound 10 µM, first compound 0.949 µM",32.7%
same,"viability, T/C","second compound 10 µM, first compound 3 µM",36.5%
